Experimental data as given in patent publication US20220160604A1, “EMULSION COMPOSITION COMPRISING ULTRAVIOLET WAVELENGTH CONVERSION SUBSTANCE AND ORGANIC OILY PHASE THICKENER” (Shiseido Company, Ltd., priority 2019, published 2022).

System: Human dermal fibroblasts
Test: Cell activity (AlamarBlue) of cells irradiated with UV through a UV wavelength conversion substance
Type: cell-based
Conditions: for cell activity at UV irradiation (relative fluorescence intensity): UV dose 0, 10, 25, 50, 75 or 100 mJ/cm^2, FIG. 3
Procedure: 1. Human dermal fibroblasts and human skin keratinocytes purchased from Kurabo Industries Ltd. were used. A cell suspension (1 mL) stored in liquid nitrogen was thawed in a water bath (37° C.) to an extent that small ice pellets remained, and then diluted with 9 mL of warm medium.
10. Depending on the cell type, fibroblasts were resuspended in FGM or KGM at a concentration of 2×10^4 cells/well (500 μL), and keratinocytes were resuspended in FGM or KGM at a concentration of 4×10^4 cells/well (500 μL) and plated 24-well plates.
11. Cells were seeded in 24-well plates and the media were changed periodically (once every 2 days for fibroblasts and once every 2 to 3 days for keratinocytes) and the cells were grown until 60 to 70% confluence (depending on the type of experiment) was reached. (Note: Fibroblasts should reach the desired confluency in 24 hours at a cell density of 2×10^4 cells/well. When the cell density is low, for example, 1×10^4 cells/well, it takes 48 hours for fibroblasts to reach the desired confluency.)
12. 24 hours before irradiation, the medium was changed to a supplement-free medium (in the case of keratinocytes) or a medium containing a low concentration of serum (0.5% FCS) (in the case of fibroblasts).
1. A solar simulator was turned on at least 30 minutes before irradiation to warm up a lamp. The solar simulator was set to use a UG11 filter. UG11 filters are filters that allow only UVB to pass and cut light of other wavelengths.
3. The cells prepared in Experiment 1-2 were washed once with warm PBS.
4. To each well was added 0.5 mL of a warmed Martinez solution (145 mM NaCl, 5.5 mM KCl, 1.2 mM MgCl2.6H2O, 1.2 mM NaH2PO4.2H2O, 7.5 mM HEPES, 1 mM CaCl2, and 10 mM D-glucose).
5. As depicted in FIG. 1, cell wells were placed on a plate. Then, 0.4 ml of a solution containing the UV wavelength conversion substances (1) to (4) prepared in Experiment 1-1 was injected into each well of a 24-well plate. […]
4. Fluorescence measurement values at 544 nm/590 nm were read using a fluorometer (OPwave +, Ocean Photonics). […]

## C-phycocyanin
0.4% C-phycocyanin solution
  cell activity at UV irradiation (relative fluorescence intensity): the decrease in cell activity was suppressed
2% C-phycocyanin solution
  cell activity at UV irradiation (relative fluorescence intensity): the cell activity was even increased
pre-irradiation 400 mJ/cm^2 without substance, then UV 0-200 mJ/cm^2 through 0.4% or 2% C-phycocyanin (effect equivalent at both), FIG. 5
  cell activity of cells having activity temporarily reduced by UV (relative fluorescence intensity): cell activity was recovered
